Assay: caffeine effect (gPD) parameters of the alertness model for PVT performance
Format: in vivo, human
Conditions: beginning model parameter value (standard error)
Text: In at least one embodiment, the model is as follows: Pc(t)=(S(t)+κC(t))*gPD(t,c) (1) where C and S denote the circadian and homeostatic processes of the two-process model at time t, respectively, and κ represents the circadian amplitude.
M0, k0, z, and ka denote an amplitude slope, a basal elimination rate, a decay constant, and an absorption rate, respectively.

Cn1c(=O)c2c(ncn2C)n(C)c1=O [caffeine]
M0 (amplitude slope) (PVT lapse statistic): 9.86 (1.80) g^−1
Z (decay constant) (PVT lapse statistic): 1.63 (1.61) g^−1
k0 (basal elimination rate) (PVT lapse statistic): 0.49 (0.17) h^−1
M0 (amplitude slope) (PVT mean RT statistic): 3.59 (0.66) g^−1
Z (decay constant) (PVT mean RT statistic): 1.63 (1.61) g^−1
k0 (basal elimination rate) (PVT mean RT statistic): 0.49 (0.17) h^−1
ka (capsule) (absorption rate) (PVT lapse statistic): 2.06 (0.36) h^−1
ka (capsule) (absorption rate) (PVT mean RT statistic): 2.06 (0.36) h^−1

— patent US11883194B2, “Method and system for measuring, predicting, and optimizing human cognitive performance” (priority 2015, dated 2024)
